# From ChEMBL document CHEMBL5154725, “SAR evolution towards potent C-terminal carboxamide peptide inhibitors of Zika virus NS2B-NS3 protease” (Bioorg Med Chem, 2022)
# Activity calls are given as the source filed them. No cut-off for these calls is given here. Non-standard residues stand in square brackets, D forms with d. Residues, ends and D or L forms follow the SMILES beside them. *: point of attachment. Phe(4-CH2NH2) = NCc1ccc(C[C@H](N)C(=O)O)cc1; Lys(Me2) = CN(C)CCCC[C@H](N)C(=O)O; Aad = N[C@@H](CCCC(=O)O)C(=O)O; PhAc = O=C(Cc1ccccc1)*; NHBn = c1ccc(CN*)cc1
# Legend:
# Zika virus [1] = experiment: (§1) Inhibition of 6-His tagged-G4SG4 fused ZIKV NS2B (49 to 95 residues) R95A mutant-NS3 (1 to 170 residue) R29G mutant expressed in Escherichia coli BL21 (DE3) using Bz-Nle-K-RR-AMC substrate at 100 uM preincubated for 10 mins followed by substrate addition and measured after 30 mins by fluorescence assay relative to control; conditions: time 40.0 min
# Zika virus [2] = experiment: Antiviral activity against ZIKV infected in African Green monkey Vero cells assessed as reduction in viral replication; assay type: functional, organism-based
# [3] = (§2) Inhibition of 6-His tagged-G4SG4 fused ZIKV NS2B (49 to 95 residues) R95A mutant-NS3 (1 to 170 residue) R29G mutant expressed in Escherichia coli BL21 (DE3) using Bz-Nle-K-RR-AMC substrate preincubated for 10 mins followed by substrate addition and measured after 30 mins by fluorescence assay; design: species or system Zika virus
# [4] = Binding affinity to 6-His tagged-G4SG4 fused ZIKV NS2B (49 to 95 residues) R95A mutant-NS3 (1 to 170 residue) R29G mutant expressed in Escherichia coli BL21 (DE3) by surface plasmon resonance assay; design: species or system Zika virus
# [5] = Stability of compound assessed 6-His tagged-G4SG4 fused ZIKV NS2B (49 to 95 residues) R95A mutant-NS3 (1 to 170 residue) R29G mutant expressed in Escherichia coli BL21 (DE3) based degradation by LC-HRMS analysis; assay type: ADME; conditions: zika virus
# Zika virus [6] = experiment: as §2, with “(DE3) assessed as covalent adduct formation” for “(DE3)”, “LC-HRMS analysis” for “fluorescence assay”; conditions: time 40.0 min
# Genome polyprotein = Genome polyprotein (dengue virus type 2, UniProt P29990); experiment: Inhibition of 6-His tagged-G4SG4 fused DENV2 NS2B (1394 to 1440 residues) -NS3 (1476 to 1660 residue) expressed in Escherichia coli BL21 (DE3) using Bz-Nle-K-RR-AMC substrate preincubated for 10 mins followed by substrate addition and measured after 30 mins by fluorescence assay
# [7] = Inhibition of 6-His tagged-G4SG4 fused WNV NS2B (1423 to 1470 residues) -NS3 (1506 to 1689 residue) using pERTKR-AMC substrate preincubated for 10 mins followed by substrate addition and measured after 30 mins by fluorescence assay; design: species or system West Nile virus
# Trypsin = Trypsin (Homo sapiens, UniProt P07477+P07478+P35030); experiment: Inhibition of human trypsin; assay type: protein assay
# Zika virus [8] = experiment: as §1, with “50” for “100”; conditions: time 40.0 min
# Zika virus [9] = experiment: as §2; conditions: time 40.0 min
# Sequence of Genome polyprotein (P29990 1346-1475 limits assumed): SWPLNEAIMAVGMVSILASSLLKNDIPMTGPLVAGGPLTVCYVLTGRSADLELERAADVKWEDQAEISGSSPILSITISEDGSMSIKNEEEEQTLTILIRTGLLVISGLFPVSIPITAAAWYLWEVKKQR
# Sequence of Genome polyprotein (P29990 1476-2093 limits assumed): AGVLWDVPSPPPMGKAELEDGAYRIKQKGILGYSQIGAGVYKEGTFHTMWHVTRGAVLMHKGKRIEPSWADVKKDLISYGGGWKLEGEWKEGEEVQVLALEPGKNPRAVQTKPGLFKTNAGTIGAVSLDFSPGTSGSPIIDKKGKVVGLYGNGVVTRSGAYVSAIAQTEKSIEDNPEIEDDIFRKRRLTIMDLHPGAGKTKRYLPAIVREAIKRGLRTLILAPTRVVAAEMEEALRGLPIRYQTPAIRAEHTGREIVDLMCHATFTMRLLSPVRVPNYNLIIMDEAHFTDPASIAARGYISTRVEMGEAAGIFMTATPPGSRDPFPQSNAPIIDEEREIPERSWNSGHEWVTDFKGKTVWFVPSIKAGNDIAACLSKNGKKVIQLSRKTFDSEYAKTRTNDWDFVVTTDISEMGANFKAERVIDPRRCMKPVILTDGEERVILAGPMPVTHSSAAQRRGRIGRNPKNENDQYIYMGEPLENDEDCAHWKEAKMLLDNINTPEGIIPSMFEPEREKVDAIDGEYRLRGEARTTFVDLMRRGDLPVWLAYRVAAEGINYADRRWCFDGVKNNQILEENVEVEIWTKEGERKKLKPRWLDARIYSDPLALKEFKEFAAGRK
smiles,measurement,setting,value
N=C(N)NCCC[C@H](NC(=O)[C@H](CCCCN)NC(=O)CNC(=O)Cc1ccccc1)C(N)=O (PhAc-Gly-Lys-Arg-NH2),inhibition,Zika virus [1],40%
N=C(N)NCCC[C@H](NC(=O)[C@H](CCCCN)NC(=O)CNC(=O)Cc1ccccc1)C(=O)O (PhAc-Gly-Lys-Arg-OH),inhibition,Zika virus [1],40%
CC(=O)N[C@H](C(=O)NCC(=O)N[C@@H](CCCCN)C(=O)N[C@@H](CCCNC(=N)N)C(N)=O)[C@@H](C)O (Ac-TGKR-NH2),inhibition,Zika virus [1],40%
CC(=O)N[C@@H](CCCCN)C(=O)N[C@@H](CCCCN)C(=O)N[C@H](C(=O)NCc1ccc(OCc2ccc(C(F)(F)F)cc2)cc1)c1ccccc1,EC50,Zika virus [2],11200 nM
same,IC50,[3],41 nM
same,Ki,[3],14 nM
same,Kd,[4],23 nM
same,Stability,[5],Stable
same,inhibition,Zika virus [6],Active
CC(=O)N[C@@H](CCCCN)C(=O)N[C@@H](CCCCN)C(=O)N[C@H](C(=O)NCc1ccccc1)c1ccc(OCc2ccc(C(F)(F)F)cc2)cc1,EC50,Zika virus [2],8500 nM
same,IC50,[3],28 nM
same,Ki,[3],7 nM
same,Kd,[4],11 nM
same,Stability,[5],Stable
same,inhibition,Zika virus [6],Active
same,IC50,Genome polyprotein,200 nM
same,IC50,[7],800 nM
same,IC50,Trypsin,2300 nM
N=C(N)NCCC[C@H](NC(=O)[C@H](CCCCN)NC(=O)[C@H](CCCC(N)=O)NC(=O)Cc1ccccc1)C(N)=O (PhAc-[Aad](NH2)-Lys-Arg-NH2),inhibition,Zika virus [8],40%
N=C(N)NCCC[C@H](NC(=O)[C@H](CCCCN)NC(=O)[C@H](CCCCN)NC(=O)Cc1ccccc1)C(N)=O (PhAc-Lys-Lys-Arg-NH2),IC50,[3],3000 nM
same,Ki,[3],2400 nM
same,IC10,Zika virus [9],300 nM
same,IC80,Zika virus [9],10000 nM
C[C@H](NC(=O)[C@H](CCCNC(=N)N)NC(=O)[C@H](CCCCN)NC(=O)[C@H](CCCCN)NC(=O)Cc1ccccc1)c1ccccc1,inhibition,Zika virus [8],50%
N=C(N)NCCC[C@H](NC(=O)[C@H](Cc1ccc(CN)cc1)NC(=O)[C@H](CCCCN)NC(=O)Cc1ccccc1)C(N)=O (PhAc-Lys-[Phe(4-CH2NH2)]-Arg-NH2),inhibition,Zika virus [1],66%
N=C(N)NCCC[C@H](NC(=O)c1cccs1)C(=O)N[C@@H](CCCCN)C(=O)NCc1ccc(OCc2ccc(C(F)(F)F)cc2)cc1,IC50,[3],8200 nM
N=C(N)NCCC[C@H](NC(=O)[C@H](CCCCN)NC(=O)[C@H](Cc1ccccc1)NC(=O)Cc1ccccc1)C(N)=O (PhAc-Phe-Lys-Arg-NH2),IC50,[3],35000 nM
CN(C)CCCC[C@H](NC(=O)[C@H](CCCCN)NC(=O)Cc1ccccc1)C(=O)N[C@@H](CCCNC(=N)N)C(N)=O (PhAc-Lys-[Lys(Me2)]-Arg-NH2),IC50,[3],25100 nM
NCCCC[C@H](NC(=O)Cc1ccccc1)C(=O)N[C@@H](CCCCN)C(=O)N[C@H](C(N)=O)c1ccc(OCc2ccc(C(F)(F)F)cc2)cc1,IC50,[3],9200 nM
N=C(N)NCCC[C@H](NC(=O)c1cccs1)C(=O)N[C@@H](CCCCN)C(=O)N[C@H](C(N)=O)c1ccc(OCc2ncco2)cc1,IC50,[3],> 100000 nM
NCCCC[C@H](NC(=O)Nc1ccccc1)C(=O)N[C@@H](CCCCN)C(=O)N[C@H](C(=O)NCc1ccccc1)c1ccc(OCc2ccc(C(F)(F)F)cc2)cc1,IC50,[3],160 nM
CC(=O)N[C@H](C(=O)NCC(=O)N[C@@H](CCCCN)C(=O)N[C@@H](CCCNC(=N)N)C(=O)O)[C@@H](C)O (Ac-TGKR-OH),inhibition,Zika virus [1],40%
N=C(N)NCCC[C@H](NC(=O)[C@H](CCCCN)NC(=O)[C@H](CCCCN)NC(=O)Cc1ccccc1)C(=O)NCc1ccccc1 (PhAc-Lys-Lys-Arg-NHBn),IC50,[3],7900 nM
NCCCC[C@H](NC(=O)Cc1ccccc1)C(=O)N[C@@H](CCCCN)C(=O)N[C@H](C(=O)NCC1CCCCC1)c1ccccc1,IC50,[3],690 nM
N=C(N)NCC[C@H](NC(=O)[C@H](CCCCN)NC(=O)[C@H](CCCCN)NC(=O)Cc1ccc(Cl)c(Cl)c1)C(=O)NCC1CCCCC1,IC50,[3],1700 nM
N=C(N)NCCC[C@H](NC(=O)c1cccs1)C(=O)N[C@@H](CCCCN)C(=O)N[C@H](C(N)=O)c1ccc(O)cc1,IC50,[3],10200 nM
CNC(=O)[C@@H](NC(=O)[C@H](CCCCN)NC(=O)[C@H](CCCCN)NC(=O)Cc1ccccc1)c1ccc(OCc2ccc(C(F)(F)F)cc2)cc1,IC50,[3],2800 nM
